Source: article PMC7598702, “Phenolome of Asian Agrimony Tea (Agrimonia asiatica Juz., Rosaceae): LC-MS Profile, α-Glucosidase Inhibitory Potential and Stability” (Foods, 2020)

What was measured:
α-glucosidase [1] = experiment: HPLC activity-based profiling (microfractionation) of A. asiatica extract for α-glucosidase inhibition; type: biochemical, Saccharomyces cerevisiae; conditions: microfractions of A. asiatica extract, main inhibition window 11.5 to 13.5 min
Experimental: Aliquots (100 µL) of A. asiatica extract solution (10 mg/mL) were separated under analytical HPLC conditions as described in Section 2.4. The collection of eluates (40 µL) performed every 30 s in 96-well plates. After drying and redissolving the eluates in 10 µL of PBS the eluates were investigated as described earlier. α-Glucosidase was dissolved in PBS which contained BSA (0.2%) up to 0.5 U/mL concentration and then added 125 µL of PBS and 60 µL p-nitrophenyl-α-D-glucopyranoside (5 mM). The samples were incubated at 37 °C for 5 min and then 60 µL α-glucosidase (0.4 U/mL) was added. The samples were incubated at 37 °C for 15 min. Then 50 µL sodium carbonate (200 mM) was added. Absorbance (A400) was determined at 400 nm. The rates (1-A400) were carried out to create HPLC-based bioactivity profiles of A. asiatica extract.
To characterize the chemical profile of A. asiatica herb extract microcolumn reversed-phase HPLC-PDA procedure was applied (Figure 3a). […] For identification, the components of interest of A. asiatica herb with high α-glucosidase inhibitory activity, the extract was subjected by HPLC activity-based profiling. To detect of anti-α-glucosidase inhibitors in A. asiatica herb extract, the procedure of small-scale semi-preparative microfractionation by reversed-phase HPLC was applied. […] Subsequently, microfractions were dried and redissolved in a buffer solution. Thereafter, an enzyme solution was added to estimate the inhibition of α-glucosidase by the eluate.

α-glucosidase [2] = system: α-glucosidase; design: method as in PMID 28045450; conditions: agrimoniin from Comarum palustre herb extract; cited from earlier work
[3] = Stability of A. asiatica phenolics in water media (infusions and decoctions, HPLC-MS quantification); type: physicochemical; conditions: boiling infusion (100 °C) and decoctions
Experimental: Quantification of compounds 1–60 were carried out using HPLC-MS data (full scan MS, peak area). The quantifications were realized under the conditions specified in Section 2.4. For the preparation of the stock solutions, 44 reference compounds (2, 6–16, 19, 23, 26, 28, 31–51, 53–56, 58–60) were carefully weighed (10 mg), then separately dissolved in methanol in a W flask (10 mL). An external standard calibration curve was constructed with the use of six data points (100, 50, 25, 10, 5, and 1 µg/mL). The calibration curves were constructed by plotting the MS peak area vs. concentration levels. Correlation coefficients, r^2; standard deviation, SYX; limits of detection, LOD; limits of quantification, LOQ; linear ranges were computed applying early reference. All analyses were performed in triplicate, data obtained were expressed as mean value ± standard deviation (SD). […] The weight of the tube was reduced to an initial sign after cooling. For analysis, the extract obtained was filtered through 0.22 μm polytetrafluoroethylene (PTFE) syringe filter and then injected into the HPLC system. […]

| content change on heat treatment in water [3] | SMILES | α-glucosidase inhibition of HPLC peaks (α-glucosidase [1]) | further results |
| --- | --- | --- | --- |
|  | O=C(O[C@H]1O[C@@H]2COC(=O)c3cc(O)c(O)c(O)c3-c3c(cc(O)c(O)c3O)C(=O)O[C@H]2[C@@H]2OC(=O)c3cc(O)c(O)c(O)c3-c3c(cc(O)c(O)c3O)C(=O)O[C@@H]12)c1cc(O)c(O)c(Oc2c(C(=O)O[C@H]3O[C@@H]4COC(=O)c5cc(O)c(O)c(O)c5-c5c(cc(O)c(O)c5O)C(=O)O[C@H]4[C@@H]4OC(=O)c5cc(O)c(O)c(O)c5-c5c(cc(O)c(O)c5O)C(=O)O[C@@H]34)cc(O)c(O)c2O)c1 [Compound 36, Agrimoniin] | most pronounced inhibition | inhibitory activity relative to α-glucosidase (α-glucosidase [2]): high inhibitory activity |
| decreased to trace amounts | O=C(O)CC(=O)OC[C@H]1O[C@@H](Oc2c(-c3ccc(O)c(O)c3)oc3cc(O)cc(O)c3c2=O)[C@H](O)[C@@H](O)[C@@H]1O [Compound 45, Quercetin-3-O-(6″-O-malonyl)-glucoside] |  |  |
|  | O=c1c(O[C@@H]2O[C@H](CO)[C@@H](O)[C@H](O)[C@H]2O)c(-c2ccc(O)c(O)c2)oc2cc(O)cc(O)c12 [Compound 41, Quercetin-3-O-glucoside] |  | α-glucosidase inhibition of HPLC peaks (α-glucosidase [1]; listed as isoquercitrin): less significant results of inhibition |
| decreased to trace amounts | O=C(O)CC(=O)OCC1OC(Oc2cc(-c3cc(=O)c4c(O)cc(O)cc4o3)ccc2O)C(O)C(O)C1O (stereo not drawn) [Compound 53, Luteolin-3-O-(6″-O-malonyl)-glucoside] |  |  |
|  | O=c1oc2c(O)c(O)cc3c(=O)oc4c(O)c(O)cc1c4c23 [Compound 38, Ellagic acid] | less significant results of inhibition |  |
